Assay results as given in paper PMC8187380, “Lipophilic nanocrystal prodrug-release defines the extended pharmacokinetic profiles of a year-long cabotegravir” (Nature Communications, 2021).
Like-named read-outs stand apart in the source and are kept apart here. Each block holds one compound with its values, some of them ahead of it.

Experiments:
[1] = Plasma/blood PK after single IM injection in male Balb/cJ mice (UNMC); assay type: in vivo
Description: In mice, inguinal, axillary, branchial, and cervical lymph nodes were collected and pooled, while in rats only cervical lymph nodes were collected. Following injection, blood samples were collected at 4 h, days 1, 2, 4, 7, 14, 28, 42, and 56 and then monthly for 12 months into EDTA tubes (blood sample time points were evenly distributed between the four groups). Fifty μl of blood was immediately transferred into 950 μl methanol (containing 0.1% FA and 2.5 mM AF), vortexed, and stored at −80 °C until drug analysis. The remaining portion of the blood samples were centrifuged at 2000 × g for 5 min for plasma collection, which was stored at −80 °C until drug analysis. […] Plasma samples were collected up to day 672 and CAB and M2CAB quantification were performed by LC-MS/MS.
For blood samples, 50 µl blood collected in 950 µl of methanol was vortexed, centrifuged at 16,000 × g for 10 min at 4 °C, and 50 µl supernatant was aspirated, mixed with 50 µl IS [20 ng/ml d3-dolutegravir (d3-DTG) and 40 ng/ml stearoylated darunavir (SDRV)] in 70% methanol (containing 0.1% FA and 2.5 mM AF). d3-DTG was used as the IS (final concentration = 10 ng/ml) for the quantification of CAB, and SDRV (final concentration = 20 ng/ml) was used as the IS for quantification of M2CAB. Ten µl of the sample was analyzed by LC-MS/MS for CAB and M2CAB. […]

[2] = Metabolic stability in blood; assay type: in vitro ADME, mouse, rat, rabbit, monkey, dog, human; conditions: for Stability in blood: 24 h
Description: […] The samples were then centrifuged at 16,000 × g for 10 min after which 10 µl of the supernatant was mixed with 80% methanol (containing 0.1% FA and 2.5 mM AF) containing an internal standard (IS) and analyzed by LC-MS/MS. For the time zero start time, a 100 µl of ice-cold blood was spiked with M2CAB and immediately 0.9 ml of methanol (containing 0.1% FA and 2.5 mM AF) was added. Heat-inactivated plasma was incubated at the same conditions and used as negative controls to differentiate chemical versus metabolic stability.

[3] = tested on: human monocyte-derived macrophages (MDMs); experiment: Cellular uptake, retention and release in macrophages; assay type: cell-based; conditions: for Percent taken up by MDMs: 8 h, 10 µM
Description: Human peripheral blood monocytes were obtained by leukapheresis from HIV-1,2 and hepatitis B seronegative donors and purified by centrifugal elutriation. Monocytes were cultured for the first seven days in macrophage colony stimulating factor enriched media (MCSF, 1000 U/ml) to facilitate cell vitality and differentiation into macrophages[15],[29]. […] Cells were maintained in clear flat-bottom 12-well plates at 37 °C in a 5% CO2 incubator at a density of 1.0 × 10^6 cells per well. Half-culture media was replaced with fresh media every other day. After differentiation, MDM were utilized for CAB prodrug or drug nanoparticle uptake, retention and release. […] At days 1, 5, 10, 15, 20, and 30, adherent MDM were washed twice with PBS, scraped into PBS, and counted using an Invitrogen Countess Automated Cell Counter (Carlsbad, CA). Cell suspension was then centrifuged at 900 × g for 8 min at 4 °C. […] To quantify release kinetics, drug concentrations were measured in samples collected from the culture media from the same retention experiment using preloaded MDMs, at the same time when cells were harvested to quantify intracellular drug retention.

[4] = tested on: HIV-1; conditions: no reference given; cited from earlier work
[5] = cited from earlier work
[6] = parameters: method as in PMID 30387005; conditions: in water; cited from earlier work
[7] = macaques; cited from earlier work
[8] = tested on: SHIV; parameters: method as in PMID 24594934; conditions: NHP, cited from earlier work
[9] = parameters: method as in PMID 26340566, PMID 26049948; conditions: cited from earlier work
[10] = tested on: CYP450; parameters: method as in PMID 26340566, PMID 26049948; conditions: cited from earlier work
[11] = Chemical (pH) stability of unformulated M2CAB; assay type: physicochemical; conditions: 37 °C, 24 h, 1 μM
Description: Next, we assessed the chemical stability of the solubilized form of M2CAB at a range of pHs [pH 1.0 (0.1 M HCl), pH 7.4 (PBS), pH 8.3 (heat-inactivated plasma) and pH 11.0 (0.1 M NaOH)]. […] At 24 h, percent M2CAB recovered was 87, 52, 5, and 2 at pH 1.0, pH 7.4, pH 8.3 and pH 11.0, respectively (Supplementary Fig. 3). Reductions in M2CAB prodrug concentrations paralleled native CAB formation, indicating the hydrolysis of the prodrug M2CAB into parent CAB.
Supplementary Figure 3. M2CAB pH stability. Chemical stability profile of M2CAB at pH 1.0 (0.1 M HCl), pH 7.4 (PBS), pH 8.3 (heat inactivated plasma) and pH 11.0 (0.1 M NaOH) at 1 μM drug concentration. (a) Percent M2CAB remaining vs. time profile for M2CAB; (b) Percent CAB formation vs. time profile from M2CAB. Data are expressed as mean (N = 2 replicates per time point). Each experiment was repeated independently two times with equivalent results.
(1 picture or pasted object on this page, not shown here)

[12] = Metabolic stability in liver S9 fractions; assay type: in vitro ADME, mouse, rat, rabbit, monkey, dog, human; conditions: six species, 2 h incubation, 1 µM
Description: The metabolic stabilities of CAB and M2CAB were determined using mouse, rat, rabbit, dog, monkey, and human liver S9 fractions (XenoTech, LLC, Lenexa, KS, USA). Briefly, CAB and M2CAB were incubated at 1 µM in a 100 µl mixture containing S9 fractions at 1 mg/ml protein concentration, NADPH (1 mM), saccharolactone (5 mM), uridine 5′-diphospho-glucuronic acid (UDPGA) (1 mM), and 3′-phosphoadenosin-5′-phosphosulphate (PAPS) ([…]) in PBS (100 mM, pH 7.4) at 37 °C. For each time point (0, 30, and 120 min), reactions were quenched by adding 0.9 ml of methanol (containing 0.1% FA and 2.5 mM AF), followed by centrifugation at 15,000 × g for 10 min. Ten microliters of the supernatants were then analyzed by LC-MS/MS. Heat-inactivated S9 fractions were incubated at the same conditions and used as negative controls. Hydroxycoumarin (7-HC) metabolites including 7-HC-glucuronide and 7-HC-sulfate, and the testosterone metabolite 6β-hydroxytestosterone were used as positive controls for phase I and phase II metabolism.

[13] = Metabolic stability in rat tissue homogenates; assay type: in vitro ADME
Description: For metabolic stability in tissues, freshly collected rat liver, spleen, muscle, and lymph node tissues were homogenized in five-volumes of PBS (w/v). […] At different time points (0, 30 min, 2 h, and 6 h), 0.9 ml of methanol (containing 0.1% FA and 2.5 mM AF) was added to each sample and vortexed for 3 min. Samples were centrifuged at 16,000 × g for 10 min, 10 µl supernatant was mixed with 80% methanol (containing 0.1% FA and 2.5 mM AF) containing IS and analyzed by LC-MS/MS.

[14] = Stability in macrophage cell culture media and MDM-cell lysate; assay type: in vitro ADME, human; conditions: M2CAB solution

Compound: C[C@H]1CO[C@@H]2Cn3cc(C(=O)NCc4ccc(F)cc4F)c(=O)c(O)c3C(=O)N12 [CAB, cabotegravir]
Fold CAB blood concentration lower than plasma concentration ([1]; all samples (mice and rats)): ~2 fold | Stability in blood ([2]; all species, 1 µM, 37 °C): stable | Percent of CAB recovered ([2]; blood, all six species, by 24 h): more than 90% | Percent taken up by MDMs [3]: ≤ 0.1% | Intracellular CAB levels in MDMs ([3]; after 8 h drug loading at 10 µM): below or at the limit of detection within hours | Protein-adjusted 90% inhibitory concentration (PA-IC90) [4]: 0.166 µg/mL | Oral bioavailability [5]: near-complete | Plasma half-life [5]: 30 to 40 h | Eliminated unchanged in feces ([5]; humans): up to 50% | Glucuronide metabolites in urine ([5]; humans): 27% | Terminal phase half-life ([5]; humans): 504 to 1200 h | Unidentified metabolites in feces ([5]; humans): 10% | tmax (oral absorption) ([5]; oral): 1.5 to 2 h | Aqueous solubility [6]: 15 µg/mL | Terminal phase half-life [7]: 72 to 288 h | Protection against intrarectal SHIV challenge ([8]; plasma CAB concentrations >3×PA-IC90): 100% | Protection against intrarectal SHIV challenge ([8]; plasma CAB concentrations ≥1×PA-IC90): 97% | Membrane permeability [9]: high | Affinity for CYP450 [10]: low

Blood concentration of the prodrug as percent of CAB ([1]; mice and rats, after NM2CAB): < 1% | Percent M2CAB recovered ([11]; pH 1.0 (0.1 M HCl)): 87% | Percent M2CAB recovered ([11]; pH 7.4 (PBS)): 52% | Percent M2CAB recovered ([11]; pH 8.3 (heat-inactivated plasma)): 5% | Percent M2CAB recovered ([11]; pH 11.0 (0.1 M NaOH)): 2% | Stability in blood ([2]; all species, 1 µM, 37 °C): unstable | Percent of M2CAB hydrolyzed ([2]; blood of dog, monkey, mouse, rat, rabbit, human, after 6 h, 1 µM, 37 °C): Greater than 80% | Time within which M2CAB was hydrolyzed into the parent CAB ([2]; blood, all species): ≤ 6 h | Stability in heat-inactivated plasma ([2]; control, 1 µM, 37 °C): unstable | Percent of M2CAB lost [12]: < 25% | Stability in heat-inactivated liver homogenate ([13]; control): unstable | Percent of M2CAB remaining/recovered ([13]; rat tissue homogenates, after 6 h incubation, 1 µM): 50–80% | Time to complete hydrolysis into CAB in cell lysates [14]: ≤ 7 days | Time to complete hydrolysis into CAB in media [14]: ≤ 3 days
Compound: CCCCCCCCCCCCCCCCCC(=O)Oc1c2n(cc(C(=O)NCc3ccc(F)cc3F)c1=O)C[C@H]1OC[C@H](C)N1C2=O [M2CAB]
Percent taken up by MDMs [3]: up to 30% | Percent released into the media (recovered as CAB) ([3]; MDMs, within days): < 95% | Percent of intracellular drug retained by MDMs ([3]; one month after 8 h loading at 10 µM): 4%
